Here are results for one compound from publication PMC5218480 (PLoS ONE, 2017).

In the experiment the test system is MV-4-11 cells. Briefly: Gene expression microarray analysis (Affymetrix PrimeView) and GSEA. The class given is cell-based, human. The arrangement: RFU PODN (11730768_x_at) / Fold change /veh PODN (11730768_x_at) / RFU LINC00158 (11744669_a_at) / Fold change /veh LINC00158 (11744669_a_at) / RFU DUSP10 (11751237_a_at) / Fold change /veh DUSP10 (11751237_a_at) / RFU ID3 (11757404_x_at) / Fold change /veh ID3 (11757404_x_at) / RFU PLEKHG5 (11737974_s_at) / Fold change /veh PLEKHG5 (11737974_s_at) / RFU LRRC4B (11730491_at) / Fold change /veh LRRC4B (11730491_at) / RFU GIMAP4 (11747438_a_at) / Fold change /veh GIMAP4 (11747438_a_at) / RFU KRT8 (11758183_x_at) / Fold change /veh KRT8 (11758183_x_at) / RFU CNN1 (11734310_a_at) / Fold change /veh CNN1 (11734310_a_at) / RFU VPS37D (11726825_at) / Fold change /veh VPS37D (11726825_at) / RFU C10orf10 (11716522_x_at) / Fold change /veh C10orf10 (11716522_x_at) / RFU KIR2DL2 /// KIR2DL4 /// KIR2DL5A /// KIR2DL5B /// KIR2DS1 /// KIR2DS2 /// KIR2DS3 /// KIR2DS4 /// KIR3DL3 /// KIR3DL3 /// KIR3DS1 (11738374_at) / Fold change /veh KIR2DL2 /// KIR2DL4 /// KIR2DL5A /// KIR2DL5B /// KIR2DS1 /// KIR2DS2 /// KIR2DS3 /// KIR2DS4 /// KIR3DL3 /// KIR3DL3 /// KIR3DS1 (11738374_at) / RFU C1QL1 (11718748_at) / Fold change /veh C1QL1 (11718748_at) / RFU TMPRSS4 (11747572_a_at) / Fold change /veh TMPRSS4 (11747572_a_at) / RFU HAMP (11756126_x_at) / Fold change /veh HAMP (11756126_x_at) / RFU RNFT2 (11725882_a_at) / Fold change /veh RNFT2 (11725882_a_at) / RFU NR4A2 (11747474_a_at) / Fold change /veh NR4A2 (11747474_a_at) / RFU ABCC12 (11746883_a_at) / Fold change /veh ABCC12 (11746883_a_at) / RFU TMEM136 (11760407_x_at) / Fold change /veh TMEM136 (11760407_x_at) / RFU CLDN22 /// WWC2 (11732394_at) / Fold change /veh CLDN22 /// WWC2 (11732394_at) / RFU HLA-DPB1 (11760878_x_at) / Fold change /veh HLA-DPB1 (11760878_x_at) / RFU SPINT1 (11716480_a_at) / Fold change /veh SPINT1 (11716480_a_at) / RFU GAP43 (11754022_s_at) / Fold change /veh GAP43 (11754022_s_at) / RFU A4GNT (11735810_at) / Fold change /veh A4GNT (11735810_at) / RFU PRB3 (11715151_x_at) / Fold change /veh PRB3 (11715151_x_at) / RFU TUBB4B (11761932_at) / Fold change /veh TUBB4B (11761932_at) / RFU CAPN14 (11732068_a_at) / Fold change /veh CAPN14 (11732068_a_at) / RFU TMCC2 (11721928_a_at) / Fold change /veh TMCC2 (11721928_a_at) / RFU IRGQ (11745062_a_at) / Fold change /veh IRGQ (11745062_a_at) / RFU FAM174B (11720279_a_at) / Fold change /veh FAM174B (11720279_a_at) / RFU TMPRSS4 (11748680_a_at) / Fold change /veh TMPRSS4 (11748680_a_at) / RFU FAM212B (11763350_a_at) / Fold change /veh FAM212B (11763350_a_at) / RFU PLEKHG5 (11743358_a_at) / Fold change /veh PLEKHG5 (11743358_a_at) / RFU ZSCAN30 (11745921_a_at) / Fold change /veh ZSCAN30 (11745921_a_at) / RFU CMKLR1 (11741424_a_at) / Fold change /veh CMKLR1 (11741424_a_at) / RFU LOC101060620 /// MAPK8IP1 (11723275_at) / Fold change /veh LOC101060620 /// MAPK8IP1 (11723275_at) / RFU SPTSSB (11747773_x_at) / Fold change /veh SPTSSB (11747773_x_at) / RFU PRSS12 (11739890_at) / Fold change /veh PRSS12 (11739890_at) / RFU BIN1 (11741810_x_at) / Fold change /veh BIN1 (11741810_x_at) / RFU WNT11 (11732464_a_at) / Fold change /veh WNT11 (11732464_a_at) / RFU C10orf10 (11716521_a_at) / Fold change /veh C10orf10 (11716521_a_at) / RFU C5orf56 (11738089_at) / Fold change /veh C5orf56 (11738089_at) / RFU CYB561 (11721691_x_at) / Fold change /veh CYB561 (11721691_x_at) / RFU ANKRD19P (11752326_a_at) / Fold change /veh ANKRD19P (11752326_a_at) / RFU OR2T12 /// OR2T33 /// OR2T8 (11738714_s_at) / Fold change /veh OR2T12 /// OR2T33 /// OR2T8 (11738714_s_at) / RFU VCAN (11748164_a_at) / Fold change /veh VCAN (11748164_a_at) / RFU JSRP1 (11732532_at) / Fold change /veh JSRP1 (11732532_at) / RFU KRTAP10-11 (11738290_x_at) / Fold change /veh KRTAP10-11 (11738290_x_at) / RFU MYO3A (11730013_a_at) / Fold change /veh MYO3A (11730013_a_at) / RFU EBF3 (11725865_a_at) / Fold change /veh EBF3 (11725865_a_at) / RFU CAMK2N1 (11719241_x_at) / Fold change /veh CAMK2N1 (11719241_x_at) / RFU C5orf56 (11738088_a_at) / Fold change /veh C5orf56 (11738088_a_at) / RFU OLFML3 (11715873_a_at) / Fold change /veh OLFML3 (11715873_a_at) / RFU LOC100653217 /// NTM (11731650_a_at) / Fold change /veh LOC100653217 /// NTM (11731650_a_at) / RFU MAPK11 (11762145_a_at) / Fold change /veh MAPK11 (11762145_a_at) / RFU FIZ1 (11724087_x_at) / Fold change /veh FIZ1 (11724087_x_at) / RFU OASL (11726364_x_at) / Fold change /veh OASL (11726364_x_at) / RFU SOX15 (11748057_x_at) / Fold change /veh SOX15 (11748057_x_at) / RFU CD79A (11719716_a_at) / Fold change /veh CD79A (11719716_a_at) / RFU HIST1H1D (11736915_at) / Fold change /veh HIST1H1D (11736915_at) / RFU CASKIN2 (11723855_a_at) / Fold change /veh CASKIN2 (11723855_a_at) / RFU LOC730098 (11760151_x_at) / Fold change /veh LOC730098 (11760151_x_at) / RFU OR4N2 (11742367_at) / Fold change /veh OR4N2 (11742367_at) / RFU PRRT2 (11749266_a_at) / Fold change /veh PRRT2 (11749266_a_at) / RFU SNX32 (11753110_a_at) / Fold change /veh SNX32 (11753110_a_at) / RFU CDHR5 (11726645_a_at) / Fold change /veh CDHR5 (11726645_a_at) / RFU RCAN1 (11760418_a_at) / Fold change /veh RCAN1 (11760418_a_at) / RFU FAM167A (11723789_a_at) / Fold change /veh FAM167A (11723789_a_at) / RFU FAM26E (11764081_at) / Fold change /veh FAM26E (11764081_at) / RFU ISYNA1 (11749810_s_at) / Fold change /veh ISYNA1 (11749810_s_at) / RFU ACY1 (11761880_at) / Fold change /veh ACY1 (11761880_at) / RFU 11764098_at / Fold change /veh 11764098_at / RFU SAMD14 (11745864_x_at) / Fold change /veh SAMD14 (11745864_x_at) / RFU NPB (11741838_a_at) / Fold change /veh NPB (11741838_a_at) / RFU TMPRSS6 (11731388_a_at) / Fold change /veh TMPRSS6 (11731388_a_at) / RFU KRTAP10-2 (11738614_at) / Fold change /veh KRTAP10-2 (11738614_at) / RFU ARHGAP8 /// PRR5-ARHGAP8 (11727945_x_at) / Fold change /veh ARHGAP8 /// PRR5-ARHGAP8 (11727945_x_at) / RFU KRTAP5-7 /// NADSYN1 (11734609_at) / Fold change /veh KRTAP5-7 /// NADSYN1 (11734609_at) / RFU RASL12 (11751679_a_at) / Fold change /veh RASL12 (11751679_a_at) / RFU CDKN2B (11736163_a_at) / Fold change /veh CDKN2B (11736163_a_at) / RFU PRF1 (11729649_at) / Fold change /veh PRF1 (11729649_at) / RFU, ZNF638 /// ZNF638-IT1 / Fold change vs veh, ZNF638 /// ZNF638-IT1 / RFU, PANK3 / Fold change vs veh, PANK3 / RFU, SH3YL1 / Fold change vs veh, SH3YL1 / RFU, ZEB2 / Fold change vs veh, ZEB2 / RFU, NRIP1 / Fold change vs veh, NRIP1 / RFU, PTTG1IP / Fold change vs veh, PTTG1IP / RFU, CAPN2 / Fold change vs veh, CAPN2 / RFU, MED14 / Fold change vs veh, MED14 / RFU, SNORA58 / Fold change vs veh, SNORA58 / RFU, C1orf63 / Fold change vs veh, C1orf63 / RFU, LRRFIP1 / Fold change vs veh, LRRFIP1 / RFU, NDUFAF7 / Fold change vs veh, NDUFAF7 / RFU, SLC12A2 / Fold change vs veh, SLC12A2 / RFU, IBTK / Fold change vs veh, IBTK / RFU, ESF1 / Fold change vs veh, ESF1 / Fold change vs veh, TMEM50B / RFU, TAOK1 / Fold change vs veh, TAOK1 / RFU, ACBD3 / Fold change vs veh, ACBD3 / RFU, TMA16 / Fold change vs veh, TMA16 / RFU, RWDD3 / Fold change vs veh, RWDD3 / RFU, BCAT1 / Fold change vs veh, BCAT1 / RFU, EDEM3 / Fold change vs veh, EDEM3 / RFU, TMEM33 / Fold change vs veh, TMEM33 / RFU, WDR75 / Fold change vs veh, WDR75 / RFU, AHCTF1 / Fold change vs veh, AHCTF1 / RFU, TFRC / Fold change vs veh, TFRC / RFU, ZDHHC17 / Fold change vs veh, ZDHHC17 / RFU, NOM1 / Fold change vs veh, NOM1 / RFU, ARL8B / Fold change vs veh, ARL8B / RFU, ZBTB11 / Fold change vs veh, ZBTB11 / RFU, TAMM41 / Fold change vs veh, TAMM41 / RFU, KIAA1704 /// LOC100996395 / Fold change vs veh, KIAA1704 /// LOC100996395 / RFU, ING1 / Fold change vs veh, ING1 / RFU, TRMT61B / Fold change vs veh, TRMT61B / RFU, FUBP3 / Fold change vs veh, FUBP3 / RFU, TP53 / Fold change vs veh, TP53 / RFU, TNKS2 / Fold change vs veh, TNKS2 / RFU, ZFP14 / Fold change vs veh, ZFP14 / RFU, ACTR2 / Fold change vs veh, ACTR2 / RFU, PPP3R1 / Fold change vs veh, PPP3R1 / RFU, PIK3R1 / Fold change vs veh, PIK3R1 / RFU, HNRNPA1 / Fold change vs veh, HNRNPA1 / RFU, RNF170 / Fold change vs veh, RNF170 / RFU, ZNF28 / Fold change vs veh, ZNF28 / RFU, RNGTT / Fold change vs veh, RNGTT / RFU, OGT / Fold change vs veh, OGT / RFU, BRD1 / Fold change vs veh, BRD1 / RFU, MARS / Fold change vs veh, MARS / RFU, ZNF655 / Fold change vs veh, ZNF655 / RFU, FAHD1 / Fold change vs veh, FAHD1 / RFU, BDP1 / Fold change vs veh, BDP1 / RFU, LRRCC1 / Fold change vs veh, LRRCC1 / RFU, ARID1A / Fold change vs veh, ARID1A / RFU, ZNF146 / Fold change vs veh, ZNF146 / RFU, ZNF330 / Fold change vs veh, ZNF330 / RFU, GPN3 / Fold change vs veh, GPN3 / RFU, C9orf123 / Fold change vs veh, C9orf123 / RFU, N4BP2L2 / Fold change vs veh, N4BP2L2 / RFU, ARFIP1 / Fold change vs veh, ARFIP1 / RFU, FAM179B / Fold change vs veh, FAM179B / RFU, BCL10 / Fold change vs veh, BCL10 / RFU, UHRF1BP1L / Fold change vs veh, UHRF1BP1L / RFU, BET1 / Fold change vs veh, BET1 / RFU, CNOT2 / Fold change vs veh, CNOT2 / RFU, ZNF268 / Fold change vs veh, ZNF268 / Fold change vs veh, ZNF507 / RFU, DGCR2 / Fold change vs veh, DGCR2 / RFU, WDSUB1 / Fold change vs veh, WDSUB1 / Fold change vs veh, HSP90B1 /// MIR3652 / RFU, ADSS / Fold change vs veh, ADSS / RFU, GK / Fold change vs veh, GK / RFU, ZNF148 / Fold change vs veh, ZNF148 / RFU, TAF9 / Fold change vs veh, TAF9 / RFU, SLC1A5 / Fold change vs veh, SLC1A5 / RFU, SLMO2 / Fold change vs veh, SLMO2 / RFU, ABCC4 / Fold change vs veh, ABCC4 / RFU, LOC101060439 /// RAP1B / Fold change vs veh, LOC101060439 /// RAP1B / RFU, RFX7 / Fold change vs veh, RFX7 / RFU, GTPBP10 / Fold change vs veh, GTPBP10 / RFU, CNEP1R1 / Fold change vs veh, CNEP1R1 / RFU, BIVM-ERCC5 /// ERCC5 / Fold change vs veh, BIVM-ERCC5 /// ERCC5 / RFU, ILF3 / Fold change vs veh, ILF3 / RFU 11762660_at / Fold change /veh 11762660_at / RFU VCAN (11757783_s_at) / Fold change /veh VCAN (11757783_s_at) / RFU DDX43 (11728927_at) / Fold change /veh DDX43 (11728927_at) / RFU KRT8 (11758188_x_at) / Fold change /veh KRT8 (11758188_x_at) / RFU NKD1 (11759106_at) / Fold change /veh NKD1 (11759106_at) / RFU SRD5A1 (11742802_a_at) / Fold change /veh SRD5A1 (11742802_a_at) / RFU TPSAB1 /// TPSB2 (11721975_s_at) / Fold change /veh TPSAB1 /// TPSB2 (11721975_s_at) / RFU GSTM3 (11746129_a_at) / Fold change /veh GSTM3 (11746129_a_at) / RFU IL23R (11737362_x_at) / Fold change /veh IL23R (11737362_x_at) / RFU TMEM51 (11727254_a_at) / Fold change /veh TMEM51 (11727254_a_at) / RFU PIWIL2 (11732686_x_at) / Fold change /veh PIWIL2 (11732686_x_at) / RFU ORM1 (11744905_x_at) / Fold change /veh ORM1 (11744905_x_at) / RFU CCDC152 (11743942_at) / Fold change /veh CCDC152 (11743942_at) / RFU ECM1 (11717891_a_at) / Fold change /veh ECM1 (11717891_a_at) / RFU IL23R (11748794_a_at) / Fold change /veh IL23R (11748794_a_at) / RFU TNFAIP8L3 (11732012_x_at) / Fold change /veh TNFAIP8L3 (11732012_x_at) / RFU MBOAT4 (11741988_at) / Fold change /veh MBOAT4 (11741988_at) / RFU 11764193_at / Fold change /veh 11764193_at / RFU TMEM53 (11763286_at) / Fold change /veh TMEM53 (11763286_at) / RFU MAGEB2 (11727129_at) / Fold change /veh MAGEB2 (11727129_at) / RFU TMEM200A (11744735_a_at) / Fold change /veh TMEM200A (11744735_a_at) / RFU CCDC152 (11751479_a_at) / Fold change /veh CCDC152 (11751479_a_at) / RFU FAM211A (11726209_a_at) / Fold change /veh FAM211A (11726209_a_at) / RFU RGS16 (11746705_a_at) / Fold change /veh RGS16 (11746705_a_at) / RFU VCAN (11755009_s_at) / Fold change /veh VCAN (11755009_s_at) / RFU RHOB (11743442_s_at) / Fold change /veh RHOB (11743442_s_at) / RFU RGS16 (11720943_a_at) / Fold change /veh RGS16 (11720943_a_at) / RFU RGS16 (11720944_at) / Fold change /veh RGS16 (11720944_at) / RFU, VPS4B / Fold change vs veh, VPS4B / RFU, CREB1 / Fold change vs veh, CREB1 / RFU, DNAJC13 / Fold change vs veh, DNAJC13 / RFU, GNAQ / Fold change vs veh, GNAQ / RFU, CDK5R1 / Fold change vs veh, CDK5R1 / RFU, ZRANB3 / Fold change vs veh, ZRANB3 / RFU, CUL4A / Fold change vs veh, CUL4A / RFU, CCNY / Fold change vs veh, CCNY / RFU, UFL1 / Fold change vs veh, UFL1 / RFU, COG3 / Fold change vs veh, COG3 / RFU, DIAPH2 / Fold change vs veh, DIAPH2 / RFU, SKA2 / Fold change vs veh, SKA2 / RFU, AFF3 / Fold change vs veh, AFF3 / RFU, LMF1 / Fold change vs veh, LMF1 / RFU, IPO11 / Fold change vs veh, IPO11 / RFU, DFFB / Fold change vs veh, DFFB / RFU, FOXP1 / Fold change vs veh, FOXP1 / RFU, CARD8 / Fold change vs veh, CARD8 / RFU, STRN3 / Fold change vs veh, STRN3 / RFU, ADK / Fold change vs veh, ADK / RFU, RASSF2 / Fold change vs veh, RASSF2 / RFU, WIPF1 / Fold change vs veh, WIPF1 / RFU, LARP1B / Fold change vs veh, LARP1B / RFU, RASA1 / Fold change vs veh, RASA1 / RFU, RB1 / Fold change vs veh, RB1 / RFU, PPFIA1 / Fold change vs veh, PPFIA1 / RFU, MAT2A / Fold change vs veh, MAT2A / RFU, CCT5 / Fold change vs veh, CCT5 / RFU, WDR92 / Fold change vs veh, WDR92 / RFU, CUX1 / Fold change vs veh, CUX1 / RFU, TTC7A / Fold change vs veh, TTC7A / RFU, TMEM135 / Fold change vs veh, TMEM135 / RFU, DEPTOR / Fold change vs veh, DEPTOR / RFU, CPM / Fold change vs veh, CPM / RFU, DNAJB6 / Fold change vs veh, DNAJB6 / RFU, CACNA2D3 / Fold change vs veh, CACNA2D3 / RFU, DTX4 / Fold change vs veh, DTX4 / RFU, TFCP2 / Fold change vs veh, TFCP2 / RFU, GMCL1 /// GMCL1P1 / Fold change vs veh, GMCL1 /// GMCL1P1 / RFU, AEBP2 / Fold change vs veh, AEBP2 / RFU, SNHG1 /// SNORD22 /// SNORD25 /// SNORD26 /// SNORD27 /// SNORD28 /// SNORD29 /// SNORD31 / Fold change vs veh, SNHG1 /// SNORD22 /// SNORD25 /// SNORD26 /// SNORD27 /// SNORD28 /// SNORD29 /// SNORD31 / Fold change (Aza/veh), C12orf56 (ProbeSet 11735607_a_at) / Fold change (ACY-1035/veh), C12orf56 (ProbeSet 11735607_a_at) / Fold change (Aza/veh), FGFR1OP (ProbeSet 11751329_s_at) / Fold change (ACY-1035/veh), FGFR1OP (ProbeSet 11751329_s_at) / Fold change (Aza/veh), VPS36 (ProbeSet 11739960_a_at) / Fold change (ACY-1035/veh), VPS36 (ProbeSet 11739960_a_at) / RFU SYPL1 (11715823_x_at) / Fold change /veh SYPL1 (11715823_x_at) / RFU IGFBP7 (11715501_s_at) / Fold change /veh IGFBP7 (11715501_s_at) / RFU REEP3 (11722064_at) / Fold change /veh REEP3 (11722064_at) / RFU IGLL1 (11728026_x_at) / Fold change /veh IGLL1 (11728026_x_at): dose or concentration left out as unconfirmed. The following applies: ProbeSet 11733831_s_at; LIST D.

On to `Nc1ccc(-c2cccs2)cc1NC(=O)c1ccc2c(c1)cc(C1CC1)n2CCN1CCOCC1` [ACY-1035], for which the “RFU, GMCL1 /// GMCL1P1” value came to 34.22 RFU.
